Values quoted from earlier work in article PMC3974845 (International journal of peptide research and therapeutics, 2013).
Read-outs that look alike come from different tables or passages of the source. Blank lines part the entries; values can stand above or below the substance they belong to. [ ]: non-standard residue; d: D form. pY = N[C@@H](Cc1ccc(OP(=O)(O)O)cc1)C(=O)O

Target: full length Stat3 (SH2 domain) (Homo sapiens, UniProt P40763)
[1] = affinity for Stat3, Table 1, ref Coleman et al. 2005
[2] = affinity for Stat3, Table 1, ref Mandal et al. 2009b
[3] = affinity for Stat3, Table 1, ref Mandal et al. 2011

Chain of full length Stat3 (SH2 domain) (P40763 whole entry, species assumed, the tested form may be a part): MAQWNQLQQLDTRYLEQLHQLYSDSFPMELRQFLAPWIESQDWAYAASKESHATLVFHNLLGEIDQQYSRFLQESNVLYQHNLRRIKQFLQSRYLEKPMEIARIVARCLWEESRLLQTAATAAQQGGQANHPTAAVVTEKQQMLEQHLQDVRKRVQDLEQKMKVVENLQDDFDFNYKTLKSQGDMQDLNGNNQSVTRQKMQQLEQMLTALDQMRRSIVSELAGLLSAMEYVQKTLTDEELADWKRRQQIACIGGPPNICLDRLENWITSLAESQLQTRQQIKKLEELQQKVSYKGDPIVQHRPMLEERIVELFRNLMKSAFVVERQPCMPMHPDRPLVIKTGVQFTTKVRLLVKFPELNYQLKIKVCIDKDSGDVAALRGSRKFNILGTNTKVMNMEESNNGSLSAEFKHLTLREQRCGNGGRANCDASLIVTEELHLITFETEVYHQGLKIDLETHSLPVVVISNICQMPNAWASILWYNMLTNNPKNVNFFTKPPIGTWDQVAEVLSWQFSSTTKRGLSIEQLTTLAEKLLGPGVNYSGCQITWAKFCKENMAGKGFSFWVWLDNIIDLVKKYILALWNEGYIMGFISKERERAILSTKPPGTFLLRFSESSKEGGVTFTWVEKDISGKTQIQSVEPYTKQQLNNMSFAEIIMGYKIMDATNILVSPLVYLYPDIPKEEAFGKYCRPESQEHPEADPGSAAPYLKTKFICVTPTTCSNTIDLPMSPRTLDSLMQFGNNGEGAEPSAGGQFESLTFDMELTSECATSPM

Substance: Ac-pTyr-Leu-Pro-Gln-Val- NH2 (Ac-[pY]LPQV-NH2; SMILES CC(=O)N[C@@H](Cc1ccc(OP(=O)(O)O)cc1)C(=O)N[C@@H](CC(C)C)C(=O)N1CCC[C@H]1C(=O)N[C@@H](CCC(N)=O)C(=O)N[C@H](C(N)=O)C(C)C) [Compound 11]
IC50 [1]: 739 ± 31 nM

Substance: Ac-pTyr-Leu-mPro-Gln-Val- NH2 [Compound 12]
IC50 [1]: 265 ± 14 nM

IC50 [2]: 138 ± 8 nM
Substance: pCinn-Leu-Pro-Gln-NHBn [Compound 13]

Substance: pCinn-Leu-mPro-Gln-NHBn [Compound 14]
IC50 [2]: 68 ± 8 nM

IC50 [3]: 70 ± 15 nM
Substance: βMpCinn-Leu-Pro-Gln- NHBn [Compound 15]

Substance: βMpCinn-Leu-mPro-Apa [Compound 18]
IC50 [3]: 88 ± 11 nM
IC50 (βMpCinn-Leu-Xaa-Apa series, fluorescence polarization, ref Mandal et al. 2011): 88 ± 11 nM

Substance: βMpCinn-Leu-mPro-Gln- NHBn [Compound 16]
IC50 [3]: 46 ± 5 nM
